pEC50: −log10 of the molar value. “Also recorded” adds a separate entry of the source. Where two headings read alike, the source gives them in different places.
Key:
[1] = cited from earlier work
p300 = p300 (Homo sapiens, UniProt Q09472); assay: Histone Acetyltransferase (HAT) in vitro acetylation assay, western blot of H3K27ac / H3K18ac; type: biochemical; conditions: compound in DMSO, EC50 for activators
Protocol: The aim of the in vitro acetylation assay is to measure the enzymatic activity of the various compounds towards p300.
First, the drug is prepared:
Second, dilute p300 in AM1 buffer to a concentration of 40 ng/μL (final concentration in the reaction 20 ng/μL). This is accomplished by diluting 1 μL of p300 (at 0.4 μg/μL) into […] of AM1 buffer.
Third, prepare the Master Mix. Prepare the Master Mix in low protein binding tubes (ThermoFisher Cat. No. 90410), 20 μL system.
Incubate reactions at 30° C. for 30 minutes.
Incubate reactions at 30° C. for 1 hour.
Fourth, perform the western blot assay. • Add 6.7 μL of Laemmli Sample Buffer 4× (Bio-Rad Laboratories Cat. No. 161-0737) for each reaction and boil samples at 95° C. for 5 min. • Charge 10 μL for each sample in 2 Tris Glycine 4-15% gels (Bio-Rad Laboratories Cat. No. 456-1086). Running Buffer: Tris-Glycine 1× (pour in the cell up to the writing “2 gels”). • Run at 90 V for 1 hour (until the gel front reaches the green line of cell). • Semi-dry transfer with Trans-Blot® Turbo™ Blotting System from Bio-Rad Laboratories (Trans-Blot® Turbo™ RTA midi PVDF transfer kit Cat. No1704275). • Activate PVDF membrane in methanol for 5 minutes and then wet in Trans-Blot® Turbo™ transfer buffer. • Wet stacks in transfer buffer. • Transfer at 23 V 1.3 A for 7 minutes. • Blocking buffer: 5% Non-Fat milk in TBST (tween 0.1%) 1 hour at room temperature. • Cut the membranes to get Ac-His 3 at 17 kDa and p300 at 300 kDa. • Incubate with primary antibodies overnight at 4° C. • The day after, make 3 washes in TBST (Tween 0.1%) of 10 minutes. • Incubate with secondary antibody at room temperature for 1 hour. • Make 3 washes in TBST (Tween 0.1%) of 5 minutes. • Incubate membranes with ECL (SuperSignal West Dura Extended Duration Substrate from ThermoFisher) for 5 minutes at room temperature. • Acquire the image with ChemiDoc Odyssey Fc 2 minutes.
To detect total H3 (loading control), strip the membranes with Restore™ Western Blot Stripping Buffer according to the manufacturer protocol.
Various compounds were tested for enzymatic activity with respect to Lys 18 and Lys 27. EC50 is indicated for Activators and IC50 for inhibitors respectively.
FIGS. 1A to 25B are graphs showing the lysine residue acetylation as a function of concentration for the compounds set forth in Table 3. The shaded area corresponds to the average values of lysine residue acetylation (continuous line) and their standard error range measured in the absence of compound and DMSO. The number of replicates is represented by “n”.

[2] = Stability in human liver microsomes; type: in vitro ADME
Protocol: Some compounds were tested for stability in human liver microsomes as shown below in Table 2.
Mixed-gender human liver microsomes (Lot #1010420) were purchased from XenoTech. The reaction mixture, minus NADPH, was prepared as described below. The test article was added into the reaction mixture at a final concentration of 1 μM. The control compound, testosterone, was run simultaneously with the test article in a separate reaction. An aliquot of the reaction mixture (without cofactor) was equilibrated in a shaking water bath at 37° C. for 3 minutes. The reaction was initiated by the addition of the cofactor, and the mixture was incubated in a shaking water bath at 37° C. Aliquots (100 μL) were withdrawn at 0, 10, 20, 30, and 60 minutes. Test article and testosterone samples were immediately combined with 400 μL of ice-cold 50/50 acetonitrile (ACN)/H2O containing 0.1% formic acid and internal standard to terminate the reaction. The samples were then mixed and centrifuged to precipitate proteins. All samples were assayed by LC-MS/MS using electrospray ionization. Analytical conditions are outlined in Appendix 1. The peak area response ratio (PARR) to internal standard was compared to the PARR at time 0 to determine the percent remaining at each time point. Half-lives and clearance were calculated using GraphPad software, fitting to a single-phase exponential decay equation.
Liver Microsomes 0.5 mg/mL NADPH (cofactor) 1 mM
Potassium Phosphate, pH 7.4 100 mM
Intrinsic clearance (CLint) was calculated based on CLint=k/P, where k is the elimination constant and P is the protein concentration in the incubation.

[3] = test system: hippocampal slices from WT mice; assay: Long-term potentiation (LTP) in hippocampal slices perfused with oTau or oAβ; type: cell-based; conditions: slices perfused with compound and either oTau (50 nM) or oAβ (200 nM)
Description: Synaptic dysfunction is a major hallmark of AD (Histol Histopathol, 1995. 10(2): p. 509-19; herein incorporated by reference in its entirety). An aspect of the drug screening protocol can include a measurement of the effect of compounds onto synaptic function. Amyloid-beta (Aβ) is a toxic peptide that is thought to underlie subtle amnesic changes occurring at early stages of Alzheimer's disease. It impairs both memory and its electrophysiological surrogate, long-term potentiation (LTP). LTP can be examined because it is a type of synaptic plasticity thought to underlie learning and memory. RA010115 can rescue the Aβ-induced reduction of LTP, and other compounds can also be screened to identify those that can re-establish normal LTP. The compounds can be applied for 20 min. Controls can be performed on slices in the absence of Aβ, and mice treated with compound. Tau is another peptide that is involved in cell to cell communication, and impairs both memory and LTP in animal models of AD and other tauopathies. FIG. 26 is a graph showing that RA010115 rescues oligomeric Tau (oTau)- and oligomeric Aβ (o Aβ)-induced LTP deficits. LTP was impaired in hippocampal slices from WT mice perfused with oTau (50 nM) and oAβ (200 nM), whereas there was no impairment in slices treated with RA10115 or vehicle. LTP was restored in slices perfused with RA010115 and either oTau or oAβ. The horizontal solid bar represents oAβ and oTau perfusion while the horizontal dashed bar represents RA010115. The three arrows correspond to the theta-burst stimulation. […]

Chain of p300 (Q09472 whole entry, species assumed): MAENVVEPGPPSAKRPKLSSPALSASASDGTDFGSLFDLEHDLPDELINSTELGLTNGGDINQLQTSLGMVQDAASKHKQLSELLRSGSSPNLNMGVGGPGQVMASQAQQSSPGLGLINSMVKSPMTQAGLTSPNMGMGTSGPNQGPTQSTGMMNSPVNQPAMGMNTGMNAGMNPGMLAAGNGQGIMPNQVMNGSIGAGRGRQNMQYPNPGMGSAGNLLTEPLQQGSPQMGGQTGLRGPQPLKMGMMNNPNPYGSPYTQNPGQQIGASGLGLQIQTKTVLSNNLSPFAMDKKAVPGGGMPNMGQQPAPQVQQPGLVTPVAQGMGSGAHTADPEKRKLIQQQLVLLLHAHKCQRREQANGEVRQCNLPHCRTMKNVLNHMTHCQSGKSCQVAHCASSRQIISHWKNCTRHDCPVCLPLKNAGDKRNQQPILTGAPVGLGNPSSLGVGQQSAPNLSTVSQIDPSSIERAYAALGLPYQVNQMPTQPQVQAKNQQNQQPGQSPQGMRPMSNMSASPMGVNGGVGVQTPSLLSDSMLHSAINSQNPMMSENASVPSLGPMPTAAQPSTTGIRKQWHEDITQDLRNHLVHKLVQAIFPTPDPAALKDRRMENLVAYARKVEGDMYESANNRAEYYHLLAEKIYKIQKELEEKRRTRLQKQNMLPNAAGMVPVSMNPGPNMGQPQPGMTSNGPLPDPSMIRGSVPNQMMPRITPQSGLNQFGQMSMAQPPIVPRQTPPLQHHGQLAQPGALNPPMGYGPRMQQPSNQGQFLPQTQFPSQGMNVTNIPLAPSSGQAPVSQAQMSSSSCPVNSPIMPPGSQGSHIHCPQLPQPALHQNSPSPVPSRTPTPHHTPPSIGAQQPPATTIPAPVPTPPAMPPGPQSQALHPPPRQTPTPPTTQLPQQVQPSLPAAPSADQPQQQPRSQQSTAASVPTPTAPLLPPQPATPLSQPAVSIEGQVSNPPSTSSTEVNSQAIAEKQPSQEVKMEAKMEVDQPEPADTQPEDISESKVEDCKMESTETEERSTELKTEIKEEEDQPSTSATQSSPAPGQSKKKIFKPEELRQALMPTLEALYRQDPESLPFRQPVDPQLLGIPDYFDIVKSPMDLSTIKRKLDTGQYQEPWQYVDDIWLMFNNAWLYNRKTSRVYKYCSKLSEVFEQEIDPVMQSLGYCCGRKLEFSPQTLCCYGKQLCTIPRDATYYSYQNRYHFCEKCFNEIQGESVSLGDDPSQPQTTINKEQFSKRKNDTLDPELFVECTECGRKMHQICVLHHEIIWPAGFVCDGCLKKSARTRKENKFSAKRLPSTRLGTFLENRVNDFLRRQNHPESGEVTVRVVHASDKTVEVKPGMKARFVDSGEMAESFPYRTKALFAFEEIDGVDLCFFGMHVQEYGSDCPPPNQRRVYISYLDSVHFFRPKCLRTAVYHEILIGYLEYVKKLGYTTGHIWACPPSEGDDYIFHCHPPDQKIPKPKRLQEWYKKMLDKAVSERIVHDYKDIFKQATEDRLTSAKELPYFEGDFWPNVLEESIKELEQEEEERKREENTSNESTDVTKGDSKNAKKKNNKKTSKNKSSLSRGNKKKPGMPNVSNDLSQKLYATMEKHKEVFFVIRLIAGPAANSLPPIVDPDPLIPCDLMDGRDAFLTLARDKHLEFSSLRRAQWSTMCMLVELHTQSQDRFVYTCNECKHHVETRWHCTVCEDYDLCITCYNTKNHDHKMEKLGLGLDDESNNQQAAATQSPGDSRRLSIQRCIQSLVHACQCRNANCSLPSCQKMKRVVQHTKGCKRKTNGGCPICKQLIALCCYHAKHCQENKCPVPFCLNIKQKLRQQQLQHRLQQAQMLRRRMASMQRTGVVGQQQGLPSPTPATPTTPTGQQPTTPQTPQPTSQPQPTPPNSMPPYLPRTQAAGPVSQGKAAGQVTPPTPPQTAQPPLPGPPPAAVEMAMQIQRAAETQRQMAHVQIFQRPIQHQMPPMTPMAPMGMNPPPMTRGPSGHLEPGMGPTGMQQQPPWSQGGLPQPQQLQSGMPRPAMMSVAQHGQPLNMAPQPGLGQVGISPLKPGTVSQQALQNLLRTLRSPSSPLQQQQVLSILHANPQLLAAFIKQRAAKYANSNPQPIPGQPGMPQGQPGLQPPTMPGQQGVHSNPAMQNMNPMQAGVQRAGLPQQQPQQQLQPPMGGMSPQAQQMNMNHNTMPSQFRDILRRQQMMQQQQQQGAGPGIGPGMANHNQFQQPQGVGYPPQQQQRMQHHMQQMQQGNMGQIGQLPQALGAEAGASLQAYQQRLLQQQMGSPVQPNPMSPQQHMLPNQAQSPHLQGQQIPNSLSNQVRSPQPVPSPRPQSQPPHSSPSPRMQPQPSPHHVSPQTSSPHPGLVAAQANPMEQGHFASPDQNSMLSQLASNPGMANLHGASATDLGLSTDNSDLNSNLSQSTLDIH

Row | SMILES | Solubility [1] | pEC50 (p300; read-out: H3-Lys 18 EC50) | pEC50 (p300; read-out: H3-Lys 27 EC50) | microsomal CLint at 1 μM ([2]; both sexes, human, liver microsomes, pH 7.4, human liver microsomes, 1 μM, read-out: CLint) [µL/min/mg] | half-life at 1 μM ([2]; both sexes, human, liver microsomes, pH 7.4, human liver microsomes, 1 μM, read-out: Half-life) [min] | % Remaining of Initial (n = 1) 0 min ([2]; human liver microsomes, test article 1 μM, 0 min) [%] | % Remaining of Initial (n = 1) 10 min ([2]; human liver microsomes, test article 1 μM, 10 min) [%] | % Remaining of Initial (n = 1) 20 min ([2]; human liver microsomes, test article 1 μM, 20 min) [%] | % Remaining of Initial (n = 1) 30 min ([2]; human liver microsomes, test article 1 μM, 30 min) [%] | % Remaining of Initial (n = 1) 60 min ([2]; human liver microsomes, test article 1 μM, 60 min) [%] | oTau- and oAβ-induced LTP deficits [3]
1 | CCOc1ccccc1C(=O)Nc1ccc(Cl)c(C(F)(F)F)c1 [CTB] | insoluble | – | – | – | – | – | – | – | – | – | –
2 | CCCCCCCCCCCCCCCc1cccc(OCC)c1C(=O)Nc1ccc(Cl)c(C(F)(F)F)c1 [CTPB] | insoluble | – | – | – | – | – | – | – | – | – | –
3 | CCOc1cccc(OCCN(C)C)c1C(=O)Nc1ccc(Cl)c(C(F)(F)F)n1 [RA013915] | – | 7.14 | 7.24 | 43.2 | 32.1 | 100 | 79.6 | 63.8 | 52.4 | 27.6 | restored; also recorded: rescues

Source: patent publication US20220127232A1, “HISTONE ACETYLTRANSFERASE MODULATORS AND COMPOSITIONS AND USES THEREOF” (The Trustees of Columbia University in the City of New York, priority 2019, published 2022)
